Values after ≈ are worked out from the molar mass of the structure shown.
Tests used:
Format in all cases: functional
[1] = system: Bacillus subtilis; test: Antimicrobial activity against Bacillus subtilis at 100 ug/disk; conditions: read-out: IZ
[2] = system: Candida albicans; test: Antimicrobial activity against Candida albicans at 100 ug/disk; conditions: read-out: IZ
[3] = system: MCF7; test: Cytotoxicity against human MCF7 cells
[4] = system: A549; test: Cytotoxicity against human A549 cells
[5] = system: HT-29; test: Cytotoxicity against human HT-29 cells

`COc1ccc(Cc2nc(/N=C3\NC(=O)N(C)C3=O)n(C)c2Cc2ccc(OC)c(OC)c2O)cc1` [PYRONAAMIDINE] gave a zone of inhibition at 100 µg/disc [1] of 10 mm and a zone of inhibition at 100 µg/disc [2] of 7 mm.

Work on `C/N=C1N=C(/N=c2\[nH]c(Cc3ccc(OC)cc3)c(Cc3ccc(OC)c(OC)c3O)n2C)C(=O)N\1C` yielded a GI50 [3] of 3 µg/mL (≈ 5.92 µM), a GI50 [4] of 6 µg/mL (≈ 11.8 µM) and a GI50 [5] of 6 µg/mL (≈ 11.8 µM).
